# Laboratory results taken from patent publication US10316017B2, “COT modulators and methods of use thereof” (Gilead Sciences, Inc., priority 2015, dated 2019).
# Tests used:
# [1] = test system: TNFα production in LPS-stimulated human monocytes; assay: Cot Monocyte TNFα Cell Based Assay; conditions: Homo sapiens, Monocyte, TNFα in LPS-stimulated human monocytes; read-out: EC50 TNF
# In short: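 5,000 cells/well; cmpd 1 h, 37 °C, 0.5% DMSO final; LPS 50 pg/ml, 4 h, 37 °C; media TNFα by HTRF sandwich (cryptate/XL665), RT overnight; % control vs unstimulated/stimulated wells.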
# [2] = target: T1, human Cot catalytic domain (30-397 amino acids) (Homo sapiens, UniProt P41279); assay: High Throughput Cot Biochemical Assay (KinEASE TR-FRET); conditions: Cot biochemical HTRF (KinEASE TR-FRET) assay; read-out: IC50 HTRF
# T1 construct: Purified recombinant human Cot catalytic domain (30-397 amino acids) was purchased from Cama Biosciences; purchased Cama Biosciences (so in the source)
# In short: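 First, purified human Cot (aa 30-397) at 5 nM phosphorylates an XL665-labeled STK3 peptide (1 μM) at 400 μM ATP, pH 7.0, 0.1% DMSO. Then a europium-conjugated phospho-specific antibody binds the product, giving the TR-FRET signal.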
# T1 sequence (P41279 30-397): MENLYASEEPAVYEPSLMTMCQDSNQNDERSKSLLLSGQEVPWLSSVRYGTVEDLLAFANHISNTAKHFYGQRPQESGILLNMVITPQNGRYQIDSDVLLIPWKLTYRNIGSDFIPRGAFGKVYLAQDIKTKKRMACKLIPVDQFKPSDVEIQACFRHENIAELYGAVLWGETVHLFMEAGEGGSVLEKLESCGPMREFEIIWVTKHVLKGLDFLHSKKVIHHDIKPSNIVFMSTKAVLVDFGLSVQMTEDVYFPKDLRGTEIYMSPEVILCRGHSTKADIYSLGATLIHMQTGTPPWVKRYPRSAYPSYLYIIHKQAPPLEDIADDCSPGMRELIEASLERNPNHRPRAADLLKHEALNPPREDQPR
SMILES,EC50 [1] [nM],IC50 [2] [nM]
"N#Cc1cnc2c(Cl)cc(N[C@@H](c3ccccc3)c3c[nH]nn3)cc2c1Nc1ccc(Cl)c(Cl)c1F [Example 644, (S)-8-chloro-4-((3,4-dichloro-2-fluorophenyl)amino)-6-((phenyl(1H-1,2,3-triazol-4-yl)methyl)amino)quinoline-3-carbonitrile]",1100,132
"CC(C)(C)N1CCC(n2cc([C@@H](Nc3cc(Cl)c4ncc(C#N)c(Nc5ccc(F)c(Cl)c5)c4c3)c3cccc(C(=O)N4CC(F)(F)C4)c3)nn2)CC1 [Example 645, (S)-6-(((1-(1-(tert-butyl)piperidin-4-yl)-1H-1,2,3-triazol-4-yl)(3-(3,3-difluoroazetidine-1-carbonyl)phenyl)methyl)amino)-8-chloro-4-((3-chloro-4-fluorophenyl)amino)quinoline-3-carbonitrile]",41,2
"CC(C)(C)N1CCC(n2cc([C@@H](Nc3cc(Cl)c4ncc(C#N)c(Nc5ccc(F)c(Cl)c5)c4c3)c3cccc(C(=O)N4CC(F)C4)c3)nn2)CC1 [Example 646, (S)-6-(((1-(1-(tert-butyl)piperidin-4-yl)-1H-1,2,3-triazol-4-yl)(3-(3-fluoroazetidine-1-carbonyl)phenyl)methyl)amino)-8-chloro-4-((3-chloro-4-fluorophenyl)amino)quinoline-3-carbonitrile]",49,1
"N#Cc1cnc2c(Cl)cc(N[C@@H](c3ccc(Cl)cc3)c3c[nH]nn3)cc2c1Nc1cc(F)c(F)cc1F [Example 647, (S)-8-chloro-6-(((4-chlorophenyl)(1H-1,2,3-triazol-4-yl)methyl)amino)-4-((2,4,5-trifluorophenyl)amino)quinoline-3-carbonitrile]",3240,377
"N#Cc1cnc2c(Cl)cc(N[C@@H](c3ccc(Cl)cc3)c3c[nH]nn3)cc2c1Nc1ccc(OCc2ccccc2)c(Cl)c1 [Example 648, (S)-4-((4-(benzyloxy)-3-chlorophenyl)amino)-8-chloro-6-(((4-chlorophenyl)(1H-1,2,3-triazol-4-yl)methyl)amino)quinoline-3-carbonitrile]",4430,> 10000
"CCOc1ccc(Nc2c(C#N)cnc3c(Cl)cc(N[C@@H](c4ccc(Cl)cc4)c4c[nH]nn4)cc23)cc1Cl [Example 649, (S)-8-chloro-4-((3-chloro-4-ethoxyphenyl)amino)-6-(((4-chlorophenyl)(1H-1,2,3-triazol-4-yl)methyl)amino)quinoline-3-carbonitrile]",2740,1460
"CC(C)(C)N1CCC(n2cc([C@@H](Nc3cc(Cl)c4ncc(C#N)c(Nc5ccc(F)c(F)c5F)c4c3)c3ccc(Cl)cc3)nn2)CC1 [Example 650, (S)-6-(((1-(1-(tert-butyl)piperidin-4-yl)-1H-1,2,3-triazol-4-yl)(4-chlorophenyl)methyl)amino)-8-chloro-4-((2,3,4-trifluorophenyl)amino)quinoline-3-carbonitrile]",661,32
"CC(C)(C)N1CCC(n2cc([C@@H](Nc3cc(Cl)c4ncc(C#N)c(Nc5cc(F)c(F)cc5F)c4c3)c3ccc(Cl)cc3)nn2)CC1 [Example 651, (S)-6-(((1-(1-(tert-butyl)piperidin-4-yl)-1H-1,2,3-triazol-4-yl)(4-chlorophenyl)methyl)amino)-8-chloro-4-((2,4,5-trifluorophenyl)amino)quinoline-3-carbonitrile]",10600,52
"CC(C)(C)N1CCC(n2cc([C@@H](Nc3cc(Cl)c4ncc(C#N)c(Nc5cc(Cl)ccc5F)c4c3)c3ccc(Cl)cc3)nn2)CC1 [Example 652, (S)-6-(((1-(1-(tert-butyl)piperidin-4-yl)-1H-1,2,3-triazol-4-yl)(4-chlorophenyl)methyl)amino)-8-chloro-4-((5-chloro-2-fluorophenyl)amino)quinoline-3-carbonitrile]",7660,61
